Columns and labels:
Assay type in all cases: cell-based
[1] = system: beneficial oral and pathogenic oral bacteria; test: Twenty-four hour optical density, conclusion over the panel; settings: at concentrations of 10, 20 and 25 μmol/ml; threshold 1.25
Text: Substrates that were able to increase the growth (or maximal growth density or extent of growth) of at least one of the above beneficial bacteria while not or only minimally increasing the growth (or maximal growth density) of the pathogenic bacteria are considered to be prebiotic compounds. The extent of growth of the tested bacteria in response to selected glycosides (β-methyl-D-galactoside and α-methyl-D-galactoside) was investigated by setting up growth curves in a nutritionally rich medium (brain heart infusion broth (BHI), Oxoid), over 24 hours. […] For each combination of bacterium/glycoside, and for each of their respective controls (i.e. the particular bacterium in the nutritionally rich medium with no glycoside), the optical density was measured at 630 nm (OD630) at 0 h and 24 h (Thermo Scientific Multiskan Ascent). Additionally, the OD630 for combinations of bacterium/glycosides grown in a 5% CO2 environment were also measured every hour between 0 h and 9 h. […] For each day and for each combination, the average (mean) of the values obtained (as detailed above) for the four technical replicas was calculated to provide a single value for each combination on each day. […]

periodontopathogens = test: Mixed culture competition, conclusion over periodontopathogens; settings: S. salivarius and β-methyl-D-galactoside added (C) compared with A, B, after 24 h and 48 hours, p<0.001
Procedure: (§1) The pathogenic species Prevotella intermedia, Aggregatibacter actinomyctemcomitans, Porphyromonas gingivalis, Fusobacterium nucleatum, Streptococcus mutans and beneficial species Streptococcus salivarius are used as model organisms for experiments. Bacterial strains are grown on blood agar plates (Oxoid, Basingstoke, UK) supplemented with 5 μg/ml hemin (Sigma Chemical Co, St. Louis, Mo.), 1 μg/ml menadion and 5% sterile horse blood (Biotrading, Keerbergen, Belgium). Bacteria are collected from blood agar plates and transferred to 10 ml brain heart infusion broth (BHI) (Difco Laboratories, Detroit, Mich.). P. intermedia, P. gingivalis, and F. nucleatum were incubated overnight at 37° C. in an anaerobic atmosphere, A. actinomycetemcomitans, S. mutans and S. salivarius are incubated overnight at 37° C. in a 5% CO2 environment. Bacterial concentration is adjusted by measuring optical density at 600 nm.
In vitro effect of β-methyl-D-galactoside on pathogens: Bacterial solutions of periodontopathogens, P. intermedia, F. nucleatum, A. actinomycetemcomitans and P. gingivalis, cariogenic species S. mutans and beneficial species, S. salivarius, are prepared of which the optical density was adjusted to 1×10^7 CFU/ml. Experiments are carried out as a dual-species model in 24 well plates containing one pathogen (1 ml) and S. salivarius (1 ml). […]

Porphyromonas gingivalis = test: Mixed culture (dual-species) competition, selective plating; settings: C: with S. salivarius; after only 24 h
Procedure: as §1
(§2) In vitro effect of β-methyl-D-galactoside on pathogens: Bacterial solutions of periodontopathogens, P. intermedia, F. nucleatum, A. actinomycetemcomitans and P. gingivalis, cariogenic species S. mutans and beneficial species, S. salivarius, are prepared of which the optical density was adjusted to 1×10^7 CFU/ml. Experiments are carried out as a dual-species model in 24 well plates containing one pathogen (1 ml) and S. salivarius (1 ml). Different conditions are tested: the two microorganisms with (C) or without (D) β-methyl-D-galactoside (200 μl, dissolved in AD (aqua distillata)), only the periodontopathogen with (B) or without (A) β-methyl-D-galactoside (200 μl). β-methyl-D-galactoside is used at a final concentration of 1 mg/ml. When S. salivarius is not added to the mixture, BHI is added to obtain an equal volume. When β-methyl-D-galactoside is not added to the mixture, AD was added to obtain an equal volume. Plates are incubated at 37° C. in an anaerobic atmosphere. Selective microbial plating is carried out at 0 h, 24 h, and 48 h. Selective agar plates are prepared for each bacterium. P. intermedia and P. gingivalis are cultured on CDC anaerobe 5% sheep blood agar (Becton Dickinson, Franklin Lakes, N.J.), A. actinomycetemcomitans on Tryptic soy serum bacitracin vancomycin agar (TSBV) (Oxoid, Basingstoke, UK), F. nucleatum on crystal violet erythromycin (CVE) agar (Oxoid, Basingstoke, UK), S. mutans on tryptone yeast extract cystine sucrose bacitracin (TYCSB) agar (Oxoid, Basingstoke, UK) and S. salivarius on Phenylethyl alcohol agar (Becton Dickinson, Franklin Lakes, N.J.).
(§3) Statistical analysis: For statistical analysis of the data, the data are log10 transformed to obtain a normal distribution. A linear mixed model is built to assess differences between treatments. A correction for multiple hypothesis testing is carried out.

Fusobacterium nucleatum = test: as above; settings: C: with S. salivarius; after 48 h
Procedure: as §1, §2, §3

[2] = system: Aggregatibacter actinomycetemcomitans; test: as above; settings: C: with S. salivarius; after only 24 h
Procedure: as §1, §2, §3

Streptococcus mutans = test: as above; settings: β-methyl-D-galactoside and S. salivarius present; p=0.9999
Procedure: as §1, §2, §3

Prevotella intermedia = test: as above; settings: C: with S. salivarius; after 48 h
Procedure: as §1, §2, §3

Structure (SMILES): CO[C@@H]1O[C@H](CO)[C@H](O)[C@H](O)[C@H]1O [β-methyl-D-galactoside]
- prebiotic effect (extent of growth), in words [1]: exhibited prebiotic effects
- number of periodontopathogens, in words (periodontopathogens): significant decrease
- concentration of pathogen, in words (Porphyromonas gingivalis): decline in concentration to zero
- pathogen numbers, in words (Fusobacterium nucleatum): significantly lower but remained slightly above zero
- concentration of pathogen, in words [2]: decline in concentration to zero
- reduction of pathogen, in words (Streptococcus mutans): no reduction is observed
- pathogen numbers, in words (Prevotella intermedia): significantly lower but remained slightly above zero

From patent US10307357B2, “Prebiotic oral care compositions containing an alkyl glycoside” (COLGATE-PALMOLIVE COMPANY, priority 2013, dated 2019)
